{
  "source": "patent US6653331B2",
  "about": "“Targeted drug delivery using sulfonamide derivatives” (Pharmacia & Upjohn Company, priority 1996, dated 2003)",
  "key": {"human hepatocytes": {"test_system": "human hepatocytes", "experiment": "In-vitro incubation with human hepatocytes", "format": "in vitro ADME", "source_text": "(§1) The following observations were made during in-vivo (animal models) and in-vitro (cell cultures) studies of the metabolic disposition of the title compound."}, "GSTA3-3": {"biological_target": "T1, GSTA3-3 (Rattus norvegicus, UniProt P04904)", "T1 construct": "The commercial preparation was a mixture of GST isozymes purified from rat liver; purchased; host or cells: rat liver (tissue-derived)", "T1 sequence (P04904 2-221 limits assumed)": "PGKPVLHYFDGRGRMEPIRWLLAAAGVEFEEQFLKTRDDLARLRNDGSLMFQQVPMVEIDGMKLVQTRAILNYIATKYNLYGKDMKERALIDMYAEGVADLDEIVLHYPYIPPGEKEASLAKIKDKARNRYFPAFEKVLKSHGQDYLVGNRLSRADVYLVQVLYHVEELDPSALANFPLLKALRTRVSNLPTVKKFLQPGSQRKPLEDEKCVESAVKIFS", "experiment": "Sulfonamidase activity of reconstituted isozyme GSTA3-3", "format": "biochemical", "conditions": "A3 homodimeric isoform of rat liver cytosol", "source_text": "(§2) As GST exists in a myriad of isoforms, which are active as homodimers and heterodimers, the specific isozyme(s) which was responsible for sulfonamide bond cleavage in the title compound, was investigated. The commercial isozyme mixture was subjected to RP-HPLC on a C18 column (0.45×25 cm). The separation profile of the various isozymes was very similar to that of published work carried out in conditions almost identical to these conditions. […] The HPLC samples were subjected to lyophilization and refolded in an Na-phosphate buffer at pH 6.8. Alternatively, refolding was carried out by subjecting the HPLC samples to a 16 hours dialysis against Na-phosphate, pH 6.8 followed by a 6 hours dialysis against Na-phosphate, pH 7.4; the refolding process was carried out at 4° C. The title compound's sulfonamidase activity of the reconstituted isozymes was proven for the A3 homodimeric isoform (GSTA3-3), and for the M1 isoform (GSTM1-1) of rat liver cytosol. The identity of the A3 isozyme was confirmed by N-terminus amino acid sequence."}, "GSTM1-1": {"biological_target": "T2, GSTM1-1 (Rattus norvegicus, UniProt P04905)", "T2 construct": "The commercial preparation was a mixture of GST isozymes purified from rat liver; purchased; host or cells: rat liver (tissue-derived)", "T2 sequence (P04905 2-218 limits assumed)": "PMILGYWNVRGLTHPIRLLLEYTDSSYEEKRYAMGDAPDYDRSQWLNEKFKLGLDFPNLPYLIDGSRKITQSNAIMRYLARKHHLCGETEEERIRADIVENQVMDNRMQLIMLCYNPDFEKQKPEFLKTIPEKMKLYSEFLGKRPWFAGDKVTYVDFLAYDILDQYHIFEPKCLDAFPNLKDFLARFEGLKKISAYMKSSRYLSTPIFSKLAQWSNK", "experiment": "Sulfonamidase activity of reconstituted isozyme GSTM1-1", "format": "biochemical", "conditions": "M1 isoform of rat liver cytosol", "source_text": "as §2"}, "CACO-2 cells": {"test_system": "CACO-2 cells", "experiment": "Metabolism in CACO-2 cell culture", "format": "in vitro ADME, human", "protocol": "as §1\n(§3) The protected title compound of J-1 is cleaved upon in-vitro incubation with GST/GSH. Enzymatic cleavage of J-1 yields sulfite (SO3^2−), azide (N3^−), and the glutathione-(p-nitrobenzene) conjugate."}, "rat hepatocytes": {"test_system": "rat hepatocytes", "experiment": "In-vitro incubation with rat hepatocytes", "format": "in vitro ADME", "source_text": "as §1"}, "[1]": {"test_system": "Glutathione-S-transferase (GST)", "experiment": "Sulfonamidase activity of commercial GST (isozyme mixture from rat liver)", "format": "biochemical", "conditions": "title compound and GSH as substrates", "protocol": "Indeed, most of the activity of 10 ml of rat liver cytosol extract was retained by a GSH-Sepharose column (3.9 ml bed volume), packed and equilibrated in 20 mM Hepes buffer, pH 7.5, while the majority of the cytosolic protein was found in the effluent. After the column was washed extensively with up to 1 mM GSH, it was eluted with 5, 20, and 50 mM GSH. The various fractions were dialyzed against 20 mM Hepes buffer, pH 7.5 and tested for enzymatic activity using the title compound and GSH as substrates; the fractions were then subjected to SDS-PAGE. […] The GSH dependence for activity, the ability to purify the enzyme in a single step by a GSH affinity column, and the Mr˜25,000 pointed to Glutathione-S-transferase (GST). […] The commercial preparation was a mixture of GST isozymes purified from rat liver."}, "GST": {"test_system": "GST", "experiment": "Incubation with GST/GSH, cleavage of the sulfonamide bond", "format": "biochemical", "protocol": "The protected title compound of formula J-1 is deprotected by GST/GSH under mild conditions. Incubations of 100 μM of this compound and 500 μM GSH with GST (0.5 mg protein /mL) are carried out in 100 mM phosphate buffer, pH 7.4 for 1 hour, at 37° C. in a volume of 0.5 mL. The cleavage of sulfonamide bond is essentially 100% complete after one hour incubation to yield the compound of formula J-2.\nas §3"}, "intracellular GSH": {"test_system": "intracellular GSH", "conditions": "cited from earlier work"}, "[2]": {"experiment": "In-vivo metabolic disposition in the dog", "source_text": "as §1"}, "[3]": {"experiment": "In-vivo metabolic disposition in the rat", "source_text": "as §1"}, "cells": {"test_system": "cells", "experiment": "Cytotoxicity in the presence of GST inhibitors", "format": "cell-based", "source_text": "Azide, N3^−, is an agent which is known to be cytotoxic to respiring cells. Azide inhibits ATP production via its interference with the cytochrome electron transport chain involved in the terminal stage of oxidative phosphorylation. The agent is markedly cytotoxic to cells relying on aerobic glycolysis/oxidative phosphorylation as a source of energy. […] Metabolism of J-1 within cells by GST releases the potent azide cytotoxin. Thus, covalent coupling of azide with the p-nitrobenzene sulfonyl moiety masks the cytotoxity of azide until cleavage by GST releases the active cytotoxin."}},
  "data": [
    {"compound": "CCC[C@@]1(CCc2ccccc2)CC(O)=C([C@H](CC)c2cccc(NS(=O)(=O)c3ccc(C#N)cn3)c2)C(=O)O1", "note": "(relative stereo) [J-1, [R-(R*,R*)]-5-Cyano-N-[3-[1-[5,6-dihydro-4-hydroxy-2-oxo-6-(2-phenylethyl)-6-propyl-2H-pyran-3-yl]propyl]phenyl]-2-pyridine-sulfonamide]", "values": [
      {"measurement": "sulfonamide cleavage with release of J-2", "setting": "human hepatocytes", "value": "underwent sulfonamide cleavage"},
      {"measurement": "sulfonamidase activity of reconstituted isozyme", "setting": "GSTA3-3", "value": "proven"},
      {"measurement": "sulfonamidase activity of reconstituted isozyme", "setting": "GSTM1-1", "value": "proven"},
      {"measurement": "sulfonamide cleavage by CACO-2 cells", "setting": "CACO-2 cells; CACO-2, human colon adenocarcinoma cell line", "value": "significant sulfonamide cleavage"},
      {"measurement": "rate of cleavage in CACO-2 cells compared with normal cells", "setting": "CACO-2 cells; CACO-2 cells versus normal cells", "value": "markedly faster"},
      {"measurement": "sulfonamide cleavage with release of J-2", "setting": "rat hepatocytes", "value": "underwent sulfonamide cleavage"},
      {"measurement": "sulfonamidase activity of commercial GST", "setting": "[1]", "value": "high sulfonamidase activity"},
      {"measurement": "cleavage of sulfonamide bond", "setting": "GST; 100 μM compound, 500 μM GSH, GST 0.5 mg protein/mL, 100 mM phosphate buffer pH 7.4, 1 hour, 37° C.", "value": "~100", "unit": "%"}
    ]},
    {"compound": "C=C(CC)C(=O)c1ccc(OCC(=O)O)c(Cl)c1Cl", "note": "[Ethacrynic Acid]", "values": [
      {"measurement": "effect on intracellular GSH", "setting": "intracellular GSH", "value": "deplete intracellular GSH"}
    ]},
    {"compound": "CCC[C@@]1(CCc2ccccc2)CC(O)=C([C@H](CC)c2cccc(N)c2)C(=O)O1", "note": "[J-2]", "values": [
      {"measurement": "circulating metabolite of the title compound in the blood", "setting": "[2]", "value": "major circulating metabolite"},
      {"measurement": "circulating metabolite of the title compound in the blood", "setting": "[3]", "value": "major circulating metabolite"}
    ]},
    {"compound": "[R-(R*,R*)]-5-Cyano-N-[3-[1-[5,6-dihydro-4-hydroxy-2-oxo-6-(2-phenylethyl)-6-propyl-2H-pyran-3-yl]propyl]phenyl]-2-pyridine-sulfonamide [J-1]", "values": [
      {"measurement": "metabolism to form the azide in the presence of known GST inhibitors", "setting": "CACO-2 cells; known GST inhibitors present", "value": "blocked"},
      {"measurement": "metabolism in CACO-2 cell culture", "setting": "CACO-2 cells; products compared with enzymatic GST/GSH cleavage", "value": "yield the same products"},
      {"measurement": "cleavage upon in-vitro incubation with GST/GSH", "setting": "GST; yields sulfite, azide and the glutathione-(p-nitrobenzene) conjugate", "value": "cleaved"},
      {"measurement": "cytotoxicity", "setting": "cells", "value": "relatively non-cytotoxic"}
    ]}
  ]
}
